Biological target: T1, human AT2 receptor (Homo sapiens, UniProt P50052)
T1 construct: membranes prepared in house
T1 sequence (P50052 1-363): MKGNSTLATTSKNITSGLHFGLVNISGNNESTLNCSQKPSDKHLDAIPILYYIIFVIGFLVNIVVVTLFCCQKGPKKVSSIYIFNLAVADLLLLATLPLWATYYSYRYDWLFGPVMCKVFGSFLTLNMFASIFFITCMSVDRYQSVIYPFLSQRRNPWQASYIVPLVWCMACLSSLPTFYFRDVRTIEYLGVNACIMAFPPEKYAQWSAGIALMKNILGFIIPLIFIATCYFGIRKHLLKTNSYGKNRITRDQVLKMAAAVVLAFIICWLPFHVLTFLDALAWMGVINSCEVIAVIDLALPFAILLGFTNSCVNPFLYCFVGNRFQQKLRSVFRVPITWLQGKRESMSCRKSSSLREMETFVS
Test: AT2 receptor binding ([125I]CGP 42112A displacement, CHO-K1 membranes)
Details: [125I]CGP 42112A 0.05 nM, membranes of CHO-K1 cells expressing human AT2 receptor; Ki from IC50 by Cheng-Prussoff equation; read-out: Ki
Excerpt: Reagents were purchased from Sigma-Aldrich, unless otherwise specified. Dialyzed fetal bovine serum (FBS) was from Life Technologies (cat. no. 10073772). Valiscreen® human angiotensin AT2 receptor cell line (cat. no. ES-070-C), [^125I]CGP 42112A (cat. no. NEX324025UC) and MicroScint™ 40 (cat. no. 6013641) were purchased from PerkinElmer. CGP 42112A (cat. no. 2569) and PD 123,319 ditrifluoroacetate (cat. no. 1361) were from Tocris Biosciences.
• 1. Growth medium • EX-CELL® CHO DHFR^− medium • 10% FBS, dialysed • 1 mM sodium pyruvate • 2 mM L-glutamine • 2. Harvesting buffer • PBS • 2 mM EDTA • 3. Suspension buffer • 50 mM Tris-HCl, pH 7.4 • 10 mM EDTA • 4. Resuspension buffer • 50 mM Tris-HCl, pH 7.4 • 0.1 mM EDTA • 0.1% sucrose • 5. Binding assay buffer • 50 mM Tris-HCl, pH 7.4 • 5 mM MgCl2 • 1 mM EDTA • 0.1% gelatin • 6. Wash buffer • 50 mM Tris-HCl, pH 7.4 Procedure for Membrane Preparation • Valiscreen® CHO-K1 cells stably expressing the human AT2 receptor were cultured in growth medium. • Cells were seeded into T-175 flasks and grown to 70-80% confluence. • Medium was removed from confluent flasks and cells were washed with warm PBS. • Cells were harvested by incubating with harvesting buffer for 10 min at 37° C., and then transferred to a centrifuge tube on ice. • Cells were centrifuged at 200 g for 5 min at 4° C. • Cell pellets were homogenised in ice-cold suspension buffer. • Homogenates were centrifuged at 40,000 g for 15 min at 4° C. • Pellets were resuspended in ice-cold resuspension buffer and centrifuged at 40,000 g for 15 min at 4° C. • Final pellets were homogenised in ice-cold resuspension buffer. • Protein concentrations were determined by BCA assay method with BSA as standard. Compound Preparation
Compounds were prepared from 10 mM stock solutions in 100% DMSO. Dilutions were made using electronic multichannel pipettes.
• Compounds dilutions were prepared in 100% DMSO at 100× final assay concentration. • Compounds were diluted in 100% DMSO to the appropriate maximal concentration. • 30 μL compound was added to row A. • 21.6 μL of 100% DMSO was added to rows B-H. • Transfer 10 μL from row A into row B (half log dilution). • Transfer 10 μL from row B into row C (half log dilution). • Transfer 10 μL from row C into row D (half log dilution). • Transfer 10 μL from row D into row E (half log dilution). • Transfer 10 μL from row E into row F (half log dilution). • Transfer 10 μL from row F into row G (half log dilution). • Transfer 10 μL from row G into row H (half log dilution). Working Plate Preparation (96-Well Plate) • Compounds were diluted 10-fold in assay buffer. • 10 μL compound solution from dose plate was transferred to corresponding well of working plate. • 90 μL assay buffer was added to the wells of working plate. • Working solutions contained 10% DMSO in assay buffer (1% DMSO final assay concentration). Controls • Total binding (high control) was determined in the absence of unlabelled ligand. A solution of 10% DMSO in assay buffer was prepared. • Non-specific binding (low control) was determined in the presence of a vast excess (10 μM) of PD 123,319. 1 mM stock solution of PD 123,319 in water was diluted 10-fold with 10% DMSO in assay buffer. Assay Plate Preparation (96-Well Plate)
15 μL compound solution was transferred to duplicate wells of assay plate. 5 compounds were tested per plate. 15 μL control solutions were transferred to columns 1 and 12 of assay plate.

| Structure (SMILES) | Ki |
| --- | --- |
| O=C(O)[C@@H]1C[C@H](N2CCCCc3cc(Cl)ccc32)CN1C(=O)C(c1ccccc1)c1ccccc1 [Compound 6, (2S,4S)-4-(7-Chloro-2,3,4,5-tetrahydro-1H-benzo[b]azepin-1-yl)-1-(2,2-diphenylacetyl)pyrrolidine-2-carboxylic acid] | 22.8 nM |
| O=C(O)[C@@H]1C[C@H](N2CCCCc3cc(F)ccc32)CN1C(=O)C(c1ccccc1)c1ccccc1 [Compound 5, (2S,4S)-1-(2,2-Diphenylacetyl)-4-(7-fluoro-2,3,4,5-tetrahydro-1H-benzo[b]azepin-1-yl)pyrrolidine-2-carboxylic acid] | 9.8 nM |
| C[C@@]1(C(=O)NS(=O)(=O)C2CC2)C[C@@H](N2CCCOc3cc(F)c(F)cc32)CN1C(=O)C(c1ccccc1)c1ccccc1 [Compound 42a, (2S,4R)—N-(cyclopropylsulfonyl)-4-(7,8-difluoro-3,4-dihydrobenzo[b][1,4]oxazepin-5(2H)-yl)-1-(2,2-diphenylacetyl)-2-methylpyrrolidine-2-carboxamide] | 5 nM |
| O=C(O)[C@@H]1C[C@@H](N2CCCCc3ccncc32)CN1C(=O)C(c1ccccc1)c1ccccc1 [Compound 28, (2S,4R)-1-(2,2-Diphenylacetyl)-4-(2,3,4,5-tetrahydro-1H-pyrido[3,4-b]azepin-1-yl)pyrrolidine-2-carboxylic acid] | 33 nM |
| O=C(O)[C@@H]1C[C@H](N2CCCc3ccccc3C2)CN1C(=O)C(c1ccccc1)c1ccccc1 [Compound 18, (2S,4S)-1-(2,2-Diphenylacetyl)-4-(1,3,4,5-tetrahydro-2H-benzo[c]azepin-2-yl)pyrrolidine-2-carboxylic acid] | 79.7 nM |
| O=C(O)[C@@H]1C[C@H](N2CCCCc3ccc(F)cc32)CN1C(=O)C(c1ccccc1)c1ccccc1 [Compound 2, (2S,4S)-1-(2,2-Diphenylacetyl)-4-(8-fluoro-2,3,4,5-tetrahydro-1H-benzo[b]azepin-1-yl)pyrrolidine-2-carboxylic acid] | 4.7 nM |
| C[C@@]1(C(=O)O)C[C@H](N2CCCOc3cc(F)ccc32)CN1C(=O)C(c1ccccc1)c1ccccc1 [Compound 33, (2S,4S)-1-(2,2-Diphenylacetyl)-4-(8-fluoro-3,4-dihydrobenzo[b][1,4]oxazepin-5(2H)-yl)-2-methylpyrrolidine-2-carboxylic acid] | 7 nM |
| O=C(NS(=O)(=O)C1CC1)[C@@H]1C[C@H](N2CCCOc3ccc(F)cc32)CN1C(=O)C(c1ccccc1)c1ccccc1 [Compound 37, (2S,4S)—N-(Cyclopropylsulfonyl)-1-(2,2-diphenylacetyl)-4-(7-fluoro-3,4-dihydrobenzo[b][1,4]oxazepin-5(2H)-yl)pyrrolidine-2-carboxamide] | 4.1 nM |
| O=C(O)[C@@H]1C[C@H](N2CCCCc3cc(F)c(F)cc32)CN1C(=O)C(c1ccccc1)c1ccccc1 [Compound 27, (2S,4S)-4-(7,8-Difluoro-2,3,4,5-tetrahydro-1H-benzo[b]azepin-1-yl)-1-(2,2-diphenylacetyl)pyrrolidine-2-carboxylic acid] | 2.8 nM |
| O=C(O)[C@@H]1C[C@H](N2CCOc3ccccc3C2)CN1C(=O)C(c1ccccc1)c1ccccc1 [Compound 19, (2S,4S)-4-(2,3-Dihydrobenzo[f][1,4]oxazepin-4(5H)-yl)-1-(2,2-diphenylacetyl)pyrrolidine-2-carboxylic acid] | 99 nM |
| CN1CCN([C@H]2C[C@@H](C(=O)O)N(C(=O)C(c3ccccc3)c3ccccc3)C2)Cc2ccccc21 [Compound 17, (2S,4S)-1-(2,2-Diphenylacetyl)-4-(1-methyl-1,2,3,5-tetrahydro-4H-benzo[e][1,4]diazepin-4-yl)pyrrolidine-2-carboxylic acid] | 178 nM |
| O=C(O)[C@@H]1C[C@H](N2CCc3ccccc32)CN1C(=O)C(c1ccccc1)c1ccccc1 [Compound 29, (2S,4S)-1-(2,2-Diphenylacetyl)-4-(indolin-1-yl)pyrrolidine-2-carboxylic acid] | 225 nM |
| C[C@@]1(C(=O)NS(=O)(=O)C2CC2)C[C@H](N2CCCOc3cc(F)c(F)cc32)CN1C(=O)C(c1ccccc1)c1ccccc1 [Compound 42b, (2S,4S)—N-(cyclopropylsulfonyl)-4-(7,8-difluoro-3,4-dihydrobenzo[b][1,4]oxazepin-5(2H)-yl)-1-(2,2-diphenylacetyl)-2-methylpyrrolidine-2-carboxamide] | 11 nM |
| O=C(O)[C@@H]1C[C@H](N2CCCCc3sccc32)CN1C(=O)C(c1ccccc1)c1ccccc1 [Compound 11, (2S,4S)-1-(2,2-Diphenylacetyl)-4-(5,6,7,8-tetrahydro-4H-thieno[3,2-b]azepin-4-yl)pyrrolidine-2-carboxylic acid] | 4.9 nM |
| O=C(O)[C@@H]1C[C@@H](N2CCCCc3ccccc32)CN1C(=O)C(c1ccccc1)c1ccccc1 [Compound 22, (2S,4R)-1-(2,2-diphenylacetyl)-4-(2,3,4,5-tetrahydro-1H-benzo[b]azepin-1-yl)pyrrolidine-2-carboxylic acid] | 9.8 nM |
| O=C(NS(=O)(=O)C1CC1)[C@@H]1C[C@H](N2CCCCc3ccccc32)CN1C(=O)C(c1ccccc1)c1ccccc1 [Compound 43, (2S,4S)—N-(Cyclopropylsulfonyl)-1-(2,2-diphenylacetyl)-4-(2,3,4,5-tetrahydro-1H-benzo[b]azepin-1-yl)pyrrolidine-2-carboxamide] | 8.6 nM |
| O=C(O)[C@@H]1C[C@H](N2CCCCCc3ccccc32)CN1C(=O)C(c1ccccc1)c1ccccc1 [Compound 13, (2S,4S)-1-(2,2-Diphenylacetyl)-4-(3,4,5,6-tetrahydrobenzo[b]azocin-1(2H)-yl)pyrrolidine-2-carboxylic acid] | 8.7 nM |
| O=C(C(c1ccccc1)c1ccccc1)N1C[C@@H](N2CCCCc3ccccc32)C[C@H]1c1nn[nH]n1 [Compound 35, 2,2-Diphenyl-1-((2S,4S)-4-(2,3,4,5-tetrahydro-1H-benzo[b]azepin-1-yl)-2-(2H-tetrazol-5-yl)pyrrolidin-1-yl)ethan-1-one] | 36.2 nM |
| COc1ccc2c(c1)CCCCN2[C@H]1C[C@@H](C(=O)O)N(C(=O)C(c2ccccc2)c2ccccc2)C1 [Compound 4, (2S,4S)-1-(2,2-Diphenylacetyl)-4-(7-methoxy-2,3,4,5-tetrahydro-1H-benzo[b]azepin-1-yl)pyrrolidine-2-carboxylic acid] | 8.8 nM |
| O=C(O)[C@@H]1C[C@@H](N2CCCOc3cc(F)c(F)cc32)CN1C(=O)C(c1ccccc1)c1ccccc1 [Compound 24, (2S,4R)-4-(7,8-Difluoro-3,4-dihydrobenzo[b][1,4]oxazepin-5(2H)-yl)-1-(2,2-diphenylacetyl)pyrrolidine-2-carboxylic acid] | 1.4 nM |
| O=C(O)[C@@H]1C[C@H](N2CCCOc3ccc(F)cc32)CN1C(=O)C(c1ccccc1)c1ccccc1 [Compound 8, (2S,4S)-1-(2,2-Diphenylacetyl)-4-(7-fluoro-3,4-dihydrobenzo[b][1,4]oxazepin-5(2H)-yl)pyrrolidine-2-carboxylic acid] | 1.4 nM |

Reference: patent US10065943B2, “Pyrrolidine derivatives as angiotensin II type 2 antagonists” (NOVARTIS AG, priority 2015, dated 2018)
